Test results from patent US6214801A, “Imidazo[1,2-a]pyridine C-nucleosides as antiviral agents” (The Regents of the University of Michigan, priority 1999, dated 2001).
“Also recorded” adds a separate entry of the source. Where two headings read alike, the source gives them in different places.

What was measured:
[1] = Growth cytotoxicity in CEM cells; assay type: cell-based; conditions: human, read-out: 50% Inhibitory Concentration IC50, Cytotoxicity, Growth (CEM cells)
Experimental: (§1) CEM cells and strain IIIB of HIV-1 were obtained through courtesy of Dr. Louis S. Kurcera, Boman Gray School of Medicine, Wake Forest University. CEM cells were grown in suspension culture and passaged through conventional procedures.

[2] = test system: HIV-1; test: HIV-1 replication, reverse transcriptase (RT) assay in CEM cells; assay type: cell-based, HIV-1 strain IIIB; conditions: CEM cells, strain IIIB
Experimental: as §1
The activity of compounds against HIV-1 replication was determine by using reverse transcriptase (RT) as a marker for HIV-1. Strain IIIB of HIV-1 was grown in CEM cells maintained in suspension culture as detailed previously (see Kucera et al. AIDS Res. Human Retroviruses, 1993, Vol. 9, pp. 307-314). The assay measured the presence of HIV in supernatants of infected CEM cells by determining the amount of RT activity. Cells were grown, infected with HIV-1, and incubated in the presence of seven concentrations (one-half log10 dilutions) of the test compounds beginning at 1 or 100 μM concentration, depending on the compound to be assayed. Procedures and the RT assay were performed as detailed previously (see White et al., Antiviral Res. 1991, Vol. 16, pp. 257-266).

[3] = test system: HCMV; test: HCMV plaque (focus) reduction assay in HFF cells; assay type: cell-based; conditions: read-out: 50% Inhibitory Concentration IC50, Antiviral Activity, HCMV (plaque assay in HFF cells)
Experimental: (§2) KB cells (available from the American Type Culture Collection (ATCC) 12301 Parklawn Drive, […], Md. 20852 (ATCC CCL 17)), an established human cell line derived from an epidermal oral carcinoma, were grown in minimal essential medium (MEM) (Sigma) with Hanks salts (MEM(H)) supplemented with 5% fetal calf serum. Human foreskin fibroblasts (HFF cells) (provided by the University of Michigan Hospital) and African green monkey kidney cells (BSC-1) (ATTC CCL 26) cells were grown in MEM with Earl salts (MEM(E)) supplemented with 10% fetal bovine serum. Cells were passaged according to conventional procedures and as described in Shipman, C., Jr. et al. (1976) Antimicrob. Agents Chemother. Vol. 9:120 and incorporated herein by reference. Briefly, cells were passaged at 1:2 to 1:10 dilutions according to conventional procedures by using 0.05% trypsin plus 0.02% EDTA in a HEPES buffered salt solution. HFF cells were passaged onlv at 1:2 dilutions.
(§3) A plaque purified isolate, Po, of the Towne strain of HCMV was used in all experiments and was a gift of Dr. Mark Stinski, University of Iowa. The KOS strain of HSV-1 was used and was provided by Dr. Sandra K. Weller, University of Connecticut. Stock preparations of HCMV and HSV-1 were prepared and titered as known to those of skill and the art and described in Turk, S. R. et al. (1987) Antimicrob. Agents Chemother. Vol. 31:544-550 and Shipman, C., Jr., et al. (1990) J. Virol. Methods Vol. 28:101-106, each incorporated herein by reference.
Stock HCMV was prepared by infecting HFF cells at a multiplicity of infection (m.o.i.) of less that 0.01 plaque-forming units (p.f.u.) per cell. Cell growth medium was changed every four days until cytopathology was evident in all cells (approximately 21 days). Supernatant fluids were retained as the virus stock. Four days later, the remaining cells were disrupted by three cycles of freeze-thawing and the cell plus medium held as an additional source of virus. Storage was in liquid nitrogen.
HCMV was titered in 24-well cluster dishes which were plated to contain 5×10^4 HFF cells/well, grown as described above. When the cells were 70 to 80% confluent, 0.2 ml of the virus suspension was added per well and adsorbed as described above. At least three ten-fold dilutions of each preparation were used. Following virus adsorption, the cell sheets were overlayed with 0.5% methocel (4000 CPS) in maintenance medium [MEM(E) with 1.1 g/liter NaHCO3, 100 units/ml penicillin G, 100 μg/ml streptomycin, and 5% fetal bovine serum]. The cultures were incubated in a humidified atmosphere of 4% CO2 -96% air. Viral plaques were visible 5 to 7 days after infection using at least 10-fold magnification. Cells were fixed and stained by a 10-minute exposure to a 0.1% solution of crystal violet in 20% methanol 7 to 12 days after infection. Microscopic foci were enumerated at 20-fold magnification using a Nikon Profile Projector.
(§4) HCMV plaque reduction experiments were performed with monolayer cultures of HFF cells by a procedure similar to that referenced above for titration of the viruses and described in Devivar, R. V. et al. (1994) J. Med. Chem. Vol. 37:2942-2949. Activity of compounds against HSV-1 was evaluated using an ELISA assay.
The effect of compounds of the replication of HCMV was measured using a plaque (focus) reduction assay. For the former, HFF cells in 24-well culture dishes were infected with approximately 50 p.f.u. of HCMV per well using the procedures detailed above. Compounds dissolved in growth medium were added in four to six selected concentrations to duplicate wells following virus adsorption. Following incubation at 37 °C for 7 to 10 days, cell sheets were fixed, stained and microscopic plaques were enumerated as described above. Drug effects were calculated as a percentage of reduction in number of plaques in the presence of each drug concentration compared to the number observed in the absence of drug. […]

[4] = Growth cytotoxicity in KB cells (crystal violet staining); assay type: cell-based; conditions: human, two population doubling times, read-out: 50% Inhibitory Concentration IC50, Cytotoxicity, Growth (KB cells)
Experimental: as §2
(§5) Two different methods were used to evaluate cytotoxicity of the compounds. First, cytotoxicity produced in stationary HFF cells was determined by microscopical examination of cells not affected by the virus used in the plaque assay. Second the effect of compounds on KB cells during two population doubling times was determined by crystal violet staining and spectrophotometric quantitation of dye eluted from stained cells. This method has been utilized for the analysis of ganciclovir and zidovudine (See Prichard, M. N. et al. Antiviral Res. (1991) Vol. 35:1060-1065).

[5] = test system: HSV-1; test: HSV-1 ELISA assay; assay type: cell-based, herpes simplex virus type 1, KOS strain; conditions: Human alphaherpesvirus 1; read-out: 50% Inhibitory Concentration IC50, Antiviral Activity, HSV-1 (ELISA assay)
Experimental: as §2, §3
Briefly, high titer HSV-1 stocks were prepared as follows. Nearly confluent monolayer cultures of KB cells were grown in 32 oz. glass bottles containing MEM(E) buffered with 25 mM HEPES and supplemented with 5% fetal bovine serum and 0.127 giliter L-arginine (VGM, virus growth medium). The cultures were infected at a low input multiplicity to reduce the formation of defective virus. After cell cytopathology reached "three to four plus", the cells were harvested by vigorous shaking, and concentrated by centrifugation (800×g for 5 min.). The resulting virus pools were stored at -760C until retrieved for use in experiments.
HSV-1 was titered using monolayer cultures of BSC-1 cells. Cells were planted at 3×10^5 cells/well using 6-well cluster dishes. MEM(E) supplemented with 10% fetal bovine serum was employed as medium. After 22-24 h, cells were 90% confluent and were inoculated in triplicate using at least three ten-fold dilutions with 0.2 ml of the virus suspension to be assayed and incubated in a humidified 4% CO2 -[…] atmosphere for one hour to permit viral adsorption. Following virus adsorption, the cell sheet was overlayed with 5 ml of MEM(E) with 5% serum plus 0.5% methocel (4000 CPS) and incubated an additional two to three days. Cells were fixed and stained with 0.1% crystal violet in 20% methanol and macroscopic plaques enumerated.
as §4
ELISA techniques according to standard procedures were also used to determine activity against HSV-1. Drug effects were calculated as a percentage of the reduction in virus titers in the presence of each drug concentration compared to the titer obtained in the absence of drug. Ganciclovir was used as a positive control in all experiments.

[6] = in vitro; assay type: cell-based, human; conditions: human, hff cells
Experimental: as §2, §5

[7] = background; cited from earlier work
[8] = test system: HCMV; conditions: background; cited from earlier work

Row | SMILES | CC50 [1] [µM] | 50% Inhibitory Concentration IC50, Antiviral Activity, HIV-1 (RT Assay) [2] | IC50 ([3]; Human betaherpesvirus 5, HFF) [µM] | CC50 [4] [µM] | IC50 [5] [µM] | CC50 [6] [µM] | cytotoxicity of known compounds (in words) [7] | antiviral activity of known compounds (in words) [8] | IC50 ([3]; Human betaherpesvirus 5, HFF cells, 7 to 10 days) [µM]
1 | OC[C@@H]1C=C[C@H](c2c(Cl)nc3cc(Cl)c(Cl)cn23)O1 [Compound 76, 2,6,7-Trichloro-3-(2',3'-dideoxy-2',3'-didehydro-β-D-ribofuranosyl) imidazo[1,2-a] pyridine] | > 100 | 14/25 | 32 | > 100 | > 100 | 100 | – | – | –
2 | OC[C@H]1O[C@@H](n2cnc3cc(Cl)c(Cl)cc32)[C@H](O)[C@@H]1O [DRB, 5,6-dichloro-1-(β-D-ribofuranosyl) benzimidazole] | – | – | – | – | – | – | generally unacceptable levels of cytotoxicity | only marginal levels of activity | –
3 | OC[C@H]1O[C@@H](n2c(Cl)nc3cc(Cl)c(Cl)cc32)[C@H](O)[C@@H]1O [TCRB, 2,5,6-trichloro-1-(2'-β-D-ribofuranosyl)benzimidazole] | – | – | – | – | – | 15 | low cellular toxicity at concentrations inhibiting viral growth | useful against HCMV infections; also recorded: very potent activity against HCMV | 9.5
